Measured values as given in PMC6522510 (Nature Communications, 2019).
Read-outs that look alike come from different tables or passages of the source.

How the values were obtained:
[1] = system: MV4-11; assay: cells; design: species or system AML cell lines (8); Secondary HTS, 10-point dose-response in triplicate, Cell Titer Glo viability, four-parameter fit EC50; conditions: Homo sapiens, MV4-11, 72 h, read-out: MV4-11
[2] = system: MOLM-13; assay: cells; design: species or system AML cell lines (8); Secondary HTS, 10-point dose-response in triplicate, Cell Titer Glo viability, four-parameter fit EC50; conditions: Homo sapiens, MOLM-13, 72 h, read-out: MOLM-13
[3] = system: U937; assay: Secondary dose-response HTS, Cell Titer Glo; format: cell-based, human; conditions: Homo sapiens
[4] = system: CHRF288-11; assay: Secondary dose-response HTS, Cell Titer Glo; format: cell-based, human; conditions: Homo sapiens, HTS; secondary high-throughput screen; CHRF288-11; read-out: average effective concentration, CHRF288-11
[5] = system: MV4-11; assay: Secondary dose-response HTS, Cell Titer Glo; format: cell-based, human; conditions: Homo sapiens; secondary high-throughput screen; MV4-11; read-out: average effective concentration, MV4-11
[6] = system: ML2; assay: Secondary dose-response HTS, Cell Titer Glo; format: cell-based, human; conditions: Homo sapiens
[7] = system: CMK; assay: Secondary dose-response HTS, Cell Titer Glo; format: cell-based, human; conditions: Homo sapiens, CMK, read-out: average effective concentration, CMK
[8] = system: M07e; assay: cells; design: species or system AML cell lines (8); Secondary HTS, 10-point dose-response in triplicate, Cell Titer Glo viability, four-parameter fit EC50; conditions: M-07e, 72 h, read-out: M07e
[9] = system: CMS; assay: cells; design: species or system AML cell lines (8); Secondary HTS, 10-point dose-response in triplicate, Cell Titer Glo viability, four-parameter fit EC50; conditions: 72 h, read-out: CMS
[10] = system: MOLM-13; assay: Secondary dose-response HTS, Cell Titer Glo; format: cell-based, human; conditions: Homo sapiens; secondary high-throughput screen; MOLM-13; read-out: average effective concentration, MOLM-13
[11] = system: CHRF288-11; assay: cells; design: species or system AML cell lines (8); Secondary HTS, 10-point dose-response in triplicate, Cell Titer Glo viability, four-parameter fit EC50; conditions: 72 h, read-out: CHRF288-11
[12] = system: U937; assay: cells; design: species or system AML cell lines (8); Secondary HTS, 10-point dose-response in triplicate, Cell Titer Glo viability, four-parameter fit EC50; conditions: Homo sapiens, U-937, 72 h, read-out: U937
[13] = U-937, secondary high-throughput screen, U937, read-out: average effective concentration, U937
[14] = secondary high-throughput screen, ML-2, read-out: average effective concentration, ML-2
[15] = secondary high-throughput screen

EC50 [1] [µM]	EC50 [2] [µM]	EC50 [3, 13] [µM]	EC50 [5] [µM]	EC50 [10] [µM]	EC50 [12] [µM]	EC50 ([3]; U-937, read-out: average effective concentration, U937) [µM]	Compound	EC50 [4] [µM]	EC50 [6, 14] [µM]	EC50 [7, 15] [µM]	EC50 [8] [µM]	EC50 [9] [µM]	EC50 [11] [µM]	EC50 [7] [µM]	EC50 ([6]; ML-2, read-out: average effective concentration, ML-2) [µM]
> 10	> 10	–	–	–	–	–	O=C(CCCCCN1C(=O)c2cccc3cccc(c23)C1=O)NO	–	–	–	–	–	–	–	–
–	–	7.8	0.6	0.26	–	–	COc1cc(N2CCC(N3CCN(C)CC3)CC2)ccc1Nc1ncc(Cl)c(Nc2ccccc2P(C)(C)=O)n1 [AP26113]	6	4	6.5	> 10	> 10	–	–	–
–	–	–	> 10	8	> 10	–	COc1cc(N2CCC(N3CCN(C)CC3)CC2)ccc1Nc1ncnc(Nc2ccccc2S(=O)(=O)C(C)C)n1 [ASP3026]	–	> 10	9.5	> 10	> 10	> 10	–	–
–	–	–	–	–	–	–	CC(C)C[C@H](NC(=O)[C@H](Cc1ccccc1)NC(=O)c1cnccn1)B(O)O [Bortezomib]	–	–	–	–	–	0.0021	–	–
–	–	4	3.9	2.5	–	–	CS(=O)(=O)N1CCc2c(-c3cnc(N)nc3)nc(N3CCOCC3)nc21 [CH-5132799]	9.4	6.9	1.5	> 10	> 10	–	–	–
–	–	3.8	0.48	1.4	–	–	CO[C@@H](C(=O)N1Cc2n[nH]c(NC(=O)c3ccc(N4CCN(C)CC4)cc3)c2C1)c1ccccc1 [DANUSERTIB]	–	0.61	–	> 10	> 10	> 10	> 10	–
> 10	> 10	–	–	–	–	–	CN1c2ccccc2C(=O)N2CCc3c([nH]c4ccccc34)[C@H]21 [EVODIAMINE]	–	–	–	–	–	> 10	–	–
> 10	–	–	–	> 10	> 10	–	CN(Cc1cnc2nc(N)nc(N)c2n1)c1ccc(C(=O)N[C@@H](CCC(=O)O)C(=O)O)cc1 [METHOTREXATE]	0.001	0.001	0.0045	> 10	> 10	–	–	–
–	–	0.001	0.001	0.001	–	–	CCNC(=O)c1noc(-c2cc(C(C)C)c(O)cc2O)c1-c1ccc(CN2CCOCC2)cc1 [NVP-AUY922]	0.021	0.023	0.001	> 10	> 10	–	–	–
–	0.115	–	–	–	–	–	COc1ccc(-c2ccc3ncc4c(c3c2)n(-c2ccc(N3CCNCC3)c(C(F)(F)F)c2)c(=O)n4C)cn1 [NVP-BGT226]	–	–	–	–	–	–	–	–
> 10	–	–	–	> 10	–	> 10	COc1cc(/C=C/c2ccc(O)cc2)cc(OC)c1 [PTEROSTILBENE]	–	–	–	> 10	> 10	> 10	1.4	> 10
–	–	–	–	–	0.0124	–	Cc1[nH]c2ccccc2c1CCNCc1ccc(/C=C/C(=O)NO)cc1 [Panobinostat]	–	–	–	–	–	–	–	–
–	> 10	–	6.3	–	> 10	–	O=C(NC[C@H](O)CO)c1ccncc1Nc1ccc(I)cc1F [Pimasertib]	–	0.001	> 10	> 10	> 10	> 10	–	–
–	0.0077	–	–	–	–	–	CC[C@@H]1C(=O)N(C)c2cnc(Nc3ccc(C(=O)N[C@H]4CC[C@H](N5CCN(CC6CC6)CC5)CC4)cc3OC)nc2N1C(C)C [Volasertib]	–	–	–	> 10	–	–	–	–
–	–	–	–	–	–	–	CCN(CCCOc1ccc2c(Nc3cc(CC(=O)Nc4cccc(F)c4)n[nH]3)ncnc2c1)CCOP(=O)(O)O [barasertib]	–	–	–	> 10	> 10	> 10	–	–

Compound	EC50 [1] [µM]	EC50 [2] [µM]	EC50 [3, 13] [µM]	EC50 [5] [µM]	EC50 [10] [µM]	EC50 [12] [µM]	EC50 ([3]; U-937, read-out: average effective concentration, U937) [µM]	EC50 [4] [µM]	EC50 [6, 14] [µM]	EC50 [7, 15] [µM]	EC50 [8] [µM]	EC50 [9] [µM]	EC50 [11] [µM]	EC50 [7] [µM]	EC50 ([6]; ML-2, read-out: average effective concentration, ML-2) [µM]
C[C@@]1(C(=O)Nc2ccc(F)nc2)CCCN1c1nc(Nc2cc(C3CC3)n[nH]2)c2cccn2n1 [BMS-754807]	–	–	–	10	8.4	> 10	–	–	2	2	> 10	> 10	> 10	–	–
